The values that follow come from patent US20250170155A1, “NUCLEOSIDE DERIVATIVES AND PRODRUGS THEREOF HAVING VIRAL GROWTH INHIBITORY ACTION” (Shionogi & Co., Ltd., priority 2021, published 2025).

A short description of one data set: Lung distribution test. In kind it is in vivo. Conditions: SD rats, 8 hours after oral administration (25 mg/kg); for concentration at 8 h: rat, read-out: Prodrug form concentration (lung). How it is done:
Test Example 5: Lung Distribution Test
Materials and methods for experiments • (1) Animals used: SD rats are used. • (2) Rearing conditions: the SD rats are allowed to freely take solid feed and sterilized tap water. • (3) Dose and grouping setting: a given dose is orally administered. Grouping is set as below.
Oral administration: 1 to 100 mg/kg (n=2 to 3) • (4) The test sample is orally administered in a form of solution or suspension. • (5) Administration method: the test sample is forcedly administered into the stomach through an oral probe for the oral administration. • (6) Evaluation items: Blood and lung are collected, and the concentrations of the compound of the present invention in plasma and lung are measured using LC/MS/MS.
Lung concentrations of Compound I-057 as an active form and Compound I-077 as a prodrug form thereof 8 hours after they were orally administered (25 mg/kg) are shown below.
In addition, lung concentrations of other prodrug forms 8 hours after they were orally administered (25 mg/kg) are shown below.

The subject of another data set is RPMI 2650 cells. Kind of data set: Cytotoxic activity evaluation, RPMI 2650 cells. Type of data set: cell-based. The following applies: read-out: Influenza test CC50 (50% cell proliferation inhibitory concentration), no virus, 3 to 6 days. On the procedure:
(§1) <Operation Procedure (Cytotoxic Activity Evaluation)>
On the day before the compound treatment, cells prepared to an appropriate number were seeded in a 96 well plate at 100 μL/well. Thereafter, the cells were cultured in a CO2 incubator at 37° C. • Preparation of 2 μg/mL trypsin/0.5% BSA/MEM
Same as those described in the section for evaluation of antiviral activity • Dilution and dispensing of test substance
A 3- to 5-fold serial dilution series of test substances was prepared in DMSO in advance, and diluted with 2 μg/mL trypsin/0.5% BSA/MEM so that the final concentration of DMSO was 0.5% (100 to 200 μL/well). The cells were washed with MEM, and then cultured in a test substance-added medium for 3 to 6 days. Double measurement was performed for each drug. • Dispensing of resazurin solution
Same as those described in the section for evaluation of antiviral activity • Measurement of fluorescence intensity
(§2) Same as those described in the section for evaluation of antiviral activity
(§3) [formula] [formula] • Calculation of Selectivity Index (SI)

In data set [1] the test system is influenza virus (A/WSN/33 (H1N1) strain). Briefly: CPE suppression effect confirmation test (influenza virus, RPMI 2650 cells), antiviral activity. Conditions: read-out: Influenza EC50 (50% CPE inhibitory concentration), A/WSN/33 (H1N1), 3 to 6 days. In kind it is cell-based.
A further data set has as its system Vero E6/TMPRSS2 cells. Kind of data set: Cytotoxic activity evaluation, Vero E6/TMPRSS2 cells. Type of data set: cell-based. Conditions: read-out: SARS-CoV-2 test CC50 (50% cell proliferation inhibitory concentration), no virus, 3 days. On the procedure: as §1
A 3- to 5-fold serial dilution series of test substances was prepared in DMSO, diluted with 2% FBS/MEM so that the concentration of DMSO was 2%, and dispensed into a 96 well plate (50 μL/well, DMSO final concentration 0.5%). • Dilution and dispensing of cells
The cells prepared to an appropriate number were seeded at 100 μL/well to the plate into which the test substance was dispensed. Thereafter, the cells were cultured in a CO2 incubator at 37° C. for 3 days. • Dispensing of CellTiter-Glo (registered trademark) 2.0 Reagent
(§4) Same as those described in the section for evaluation of antiviral activity • Measurement of luminescence intensity
as §2
Excel, TIBCO Spotfire, or a program having equivalent calculation processing capability based on the following calculation formula.

The subject of data set [2] is SARS-CoV-2 (hCoV-19/Japan/TY/WK-521/2020 strain). Briefly: CPE suppression effect confirmation test (SARS-CoV-2, Vero E6/TMPRSS2 cells), antiviral activity. The following applies: read-out: SARS-CoV-2 EC50 (50% CPE inhibitory concentration), 3 days culture. Type of data set: cell-based.
Data set [3] can be described thus: Cytotoxic activity evaluation, HEK293T/ACE2-TMPRSS2 cells. Conditions: human, no virus. Type of data set: cell-based. On the procedure:
as §1
A 3- to 5-fold serial dilution series of test substances was prepared in DMSO, diluted with 2% FIBS/MEM so that the concentration of DMSO was 2%, and dispensed into a 96 or 384/well well plate (50 μL/well or 40 μL/well, DMSO final concentration 0.5%). • Dilution and dispensing of cells
The cells prepared to an appropriate number were seeded at 100 μL/well or 40 μL/well to the plate into which the test substance was dispensed. Thereafter, the cells were cultured in a CO2 incubator at 37° C. for 3 days. • Dispensing of CellTiter-Glo (registered trademark) 2.0 Reagent
as §4, §2, §3

For data set [4], the system named is SARS-CoV-2 (hCoV-19/Japan/TY/WK 521/2020 strain). Briefly: microbe, parasite or virus in culture. Type of data set: cell-based. The following applies: HEK293T/ACE2-TMPRSS2 cells; for EC50: Severe acute respiratory syndrome coronavirus 2, HEK-293T, 72 h, read-out: SARS-CoV-2 EC50 (50% CPE inhibitory concentration), 293T-AT, 3 days culture.

The structures appear in SMILES notation. A value given as a limit tells only on which side of the number the result lay.

With `CC(C)(C)CC(=O)OC[C@H]1N[C@@H](c2cc(C(N)=O)c3c(N)ncnn23)[C@H](O)[C@@H]1O` [Compound I-058], the concentration at 8 h in “Lung distribution test” turned out to be 12.7 ng/g.

For the molecule `CCC(C)(C)C(=O)OC[C@H]1N[C@@H](c2cc(C(N)=O)c3c(N)ncnn23)[C@H](O)[C@@H]1O` [Compound I-063], in “Lung distribution test”, the concentration at 8 h came to 3.85 ng/g.

For `Nc1ncnn2c([C@@H]3O[C@](F)(CO)[C@@H](O)C3(F)F)ccc12` [Compound I-008], the CC50 in the data set on RPMI 2650 cells is 432 µM. In addition, in data set [1], the EC50 came to 7.01 µM.

Consider `CC1(C)O[C@@H]2[C@H](O1)[C@@H](CO)N[C@H]2c1cc(/C=N/O)c2c(N)ncnn12` [Compound I-018], for which the CC50 in the data set on RPMI 2650 cells is greater than 500 µM. For the same molecule, the EC50 in data set [1] is 1.06 µM.

Consider `N#C[C@@]1(c2c[nH]c3c(N)ncnc23)O[C@H](CO)[C@@H](O)[C@H]1O` [Compound I-048], for which, in the data set with Vero E6/TMPRSS2 cells, the CC50 was greater than 500 µM. In data set [2], the EC50 came out at 40.9 µM.

As for `CC(O)c1cc([C@@H]2N[C@H](CO)[C@@H](O)[C@H]2O)c2ncnc(N)n12` (some centres unmarked) [Compound I-038], the CC50 in the data set with RPMI 2650 cells is greater than 500 µM. In data set [1], the EC50 was determined as 4.41 µM.

As to `N/C(=N\O)c1cc([C@@H]2N[C@H](CO)[C@@H](O)[C@H]2O)n2ncnc(N)c12` [Compound I-016], the CC50 in the data set with Vero E6/TMPRSS2 cells was greater than 500 µM. Further, in data set [2], the EC50 amounted to 1.57 µM.

In the case of `Nc1ncnn2c([C@@H]3N[C@H](CO)[C@@H](O)[C@H]3O)cc(O)c12` [Compound I-022], the CC50 in the data set on Vero E6/TMPRSS2 cells is 129 µM; in the data set on RPMI 2650 cells, greater than 500 µM. The results for the EC50 in data set [2] and in data set [1] were 1.03 µM and 105 µM, respectively.

`CC(C)(C(=O)OC[C@H]1N[C@@H](c2cc(C(N)=O)c3c(N)ncnn23)[C@H](O)[C@@H]1O)c1ccccc1` [Compound I-072]: the concentration at 8 h in the data set “Lung distribution test” turned out to be 6.41 ng/g.

`CCC(CC)C(=O)OC[C@H]1N[C@@H](c2cc(C(N)=O)c3c(N)ncnn23)[C@H](O)[C@@H]1O` [Compound I-054]: the “Active form concentration (lung)” value in “Lung distribution test” turned out to be 6480 ng/g.

`CC(C)(C)OC(=O)N1[C@H](CO)[C@@H](O)[C@@H](O)[C@@H]1c1cc(N)c2c(N)ncnn12` [Compound I-024]: the CC50 in the data set with Vero E6/TMPRSS2 cells is 189 µM; in the data set on RPMI 2650 cells it was 310 µM. Also, the EC50 in data set [2] was 49.3 µM; in data set [1] it was 47.9 µM.

In the case of `OC[C@H]1N[C@@H](c2ccc3c(NO)ncnn23)[C@H](O)[C@@H]1O` [Compound I-020], in the data set on RPMI 2650 cells, the CC50 was greater than 500 µM. The EC50 in data set [1] stood at 20.2 µM.

Regarding `Cn1ccc(-c2cc([C@H]3[C@@H]4OC(C)(C)O[C@@H]4[C@@H](CO)N3C(=O)OC(C)(C)C)n3ncnc(N)c23)n1` [Compound I-030], the CC50 in the data set on RPMI 2650 cells is greater than 500 µM. The EC50 in data set [1] is 7.65 µM.

The molecule `Cc1nc(-c2cc([C@@H]3N[C@H](CO)[C@@H](O)[C@H]3O)n3ncnc(N)c23)n[nH]1` [Compound I-088] registered a CC50 at 3 days in data set [3] greater than 500 µM. Moreover, in data set [4], the “SARS-CoV-2 SI (Selectivity Index), 293T-AT” value was greater than 16.4 and the EC50 is 30.4 µM.

`Cc1cc(-c2cc([C@@H]3N[C@H](CO)[C@@H](O)[C@H]3O)n3nc(F)nc(N)c23)[nH]n1.Cl` [Compound I-084] registered a CC50 at 3 days in data set [3] of 257 µM. Moreover, in data set [4], the “SARS-CoV-2 SI (Selectivity Index), 293T-AT” value is 48.2 and the EC50 was determined as 5.33 µM.
